The source of these data is patent US10576039B2, “Ophthalmic formulation comprising citicoline carried by liposome for the treatment of glaucoma” (Omikron Italia S.r.l., priority 2016, dated 2020).

The conditions of data set [1]: taken orally, cited from earlier work.
Data set [2] is described as follows: Citicoline in vitreous humour and blood by HPLC after topical instillation of liposome solution. The data set is classed as in vivo, male mice of Wistar-Kyoto strain. An excerpt:
For the experimental group 12 animals were used for an adequate statistical management of the results (average, standard deviation and significance).
The used number of animals, following statistical evaluation, represents the minimum number therefrom it is possible to obtain significant data. In the study male mice of Wistar-Kyoto strain were used according to previous experiments performed by the research group.
The animals were kept and manipulated in a structure suitable for keeping the animals under optimum conditions (temperature, humidity, ventilation, hygienic conditions). In the study a formulation in solution for ophthalmic use was utilized constituted by […] liposomes including 2% citicoline sodium salt. […]
Moreover on each animal an endocardial blood sample was taken after total anaesthesia both before and after treatment, just before being sacrificed, by using a test tube with EDTA; on such sample, for each animal, the blood count and citicoline presence were determined. […]
After extraction and subsequent centrifugation at 13,000 rpm for 5 minutes at 5° C. the supernatant was taken and injected into a HPLC system equipped with a ultraviolet detector Diode Array and chromatographic column C18—Kromasil 250×4.6 mm with 5-μm particles. Of course, all samples, even the checks, were subjected to the same kind of treatment before being analysed in HPLC. […]

Regarding `C[N+](C)(C)CCOP(=O)(O)OP(=O)([O-])OC[C@H]1O[C@@H](n2ccc(N)nc2=O)[C@H](O)[C@@H]1O` [Citicoline, cytidine-5′-diphosphocholine], the “time of plasma peak after ingestion” value in data set [1] (first peak) is 1 h. Also, the “time of larger second plasma peak” value in data set [1] (later peak) was 24 h. Also, the “fraction excreted in the feces” value in data set [1] is “less than 1%”. Also, in data set [2] (eyes treated topically with liposome solution for three days), the “vitreous humour citicoline as % of the amount applied topically” value was 13%. Further, the “presence/penetration of citicoline in the vitreous humour (in words)” value in data set [2] (topical treatment, HPLC elution profile, comparison with citicoline administered in solution (Parisi et al., 2015; Roberti et al., 2015)) is on record as “present in high concentrations”.
